Source: paper PMC9100109, “UnbiasedDTI: Mitigating Real-World Bias of Drug-Target Interaction Prediction by Using Deep Ensemble-Balanced Learning” (Molecules, 2022)

Biological target: T1, ACE2: SARS-CoV-2 Spike complex (UniProt P0DTC2+Q9BYF1)
T1 construct: BPS Bioscience Cat: 79936; inferred from capture on a nickel-coated plate; inferred from detection with anti-mouse Fc-HRP; purchased BPS Bioscience 79936
Test: biochemical
Assay type: binding, human ACE2 / SARS-CoV-2 spike

SMILES	Lab Results	activity against the complex of the spike protein and ACE2	IC50 [nM]
N.O=C(O)C(=O)C[C@@H](O)[C@@H](O)[C@H](O)[C@H](O)CO [2-keto-3-deoxyoctonate ammonium salt, 2-Keto-3-deoxyoctonate ammonium salt]	P (key: P: positive (interacting); N: negative (non-interacting))	–	–
OC[C@H]1O[C@H](OC[C@H]2O[C@H](OC[C@H]3OC(O)[C@@H](O)[C@@H](O[C@H]4O[C@H](CO)[C@@H](O)[C@H](O)[C@@H]4O)[C@@H]3O)[C@@H](O)[C@@H](O[C@H]3O[C@H](CO)[C@@H](O)[C@H](O)[C@@H]3O)[C@@H]2O)[C@@H](O)[C@@H](O)[C@@H]1O (stereo partly drawn) [3 α ,6 α -Mannopentaose]	N (key: P: positive (interacting); N: negative (non-interacting))	inactive	–
CC(=O)N[C@H]1C(O)O[C@H](CO)[C@@H](O[C@@H]2O[C@H](CO)[C@H](O)[C@H](O)[C@H]2O)[C@@H]1O (stereo partly shown) [N-Acetyllactosamine]	P (key: P: positive (interacting); N: negative (non-interacting))	–	–
O=C(CO)N[C@H]1[C@H]([C@H](O)[C@H](O)CO)O[C@](O)(C(=O)O)C[C@@H]1O [N-Glycolylneuraminic, N-glycolylneuraminic acid]	P (key: P: positive (interacting); N: negative (non-interacting))	–	–
CC(=O)N[C@H]1[C@H]([C@H](O)[C@H](O)CO)OC(O)(C(=O)O)C[C@@H]1O (stereo partly shown) [N-acetyl-neuraminic, N-acetyl-neuraminic acid]	P (key: P: positive (interacting); N: negative (non-interacting))	–	19
CC(=O)N[C@H]1[C@H]([C@H](O)[C@H](O)CO)O[C@](OP(=O)([O-])OC[C@H]2O[C@@H](n3ccc(N)nc3=O)[C@H](O)[C@@H]2O)(C(=O)O)C[C@@H]1O.[Na+] [cytidine-5-monophospho-N-acetylneuraminic acid sodium salt]	P (key: P: positive (interacting); N: negative (non-interacting))	–	–
CC(C)CN(C[C@@H](O)[C@H](Cc1ccccc1)NC(=O)O[C@H]1CO[C@H]2OCC[C@H]21)S(=O)(=O)c1ccc(N)cc1 [darunavir, Darunavir, reference compound]	P (key: P: positive (interacting); N: negative (non-interacting))	–	5.5
